According to US20040186022A1, “Enhanced herbicides” (priority 1999, published 2004):
One block for each compound: values may come before it.

Key:
[1] = test system: 60 G/a: lambsquarter, foxtail and velvetleaf; spray to drip: snapbeans, corn and tomatoes; experiment: Succinic acid enhancement of oleic acid/sodium salicylate herbicidal activity (60 G/a and spray to drip); assay type: in vivo
From the text: (§1) The herbicides were applied in the “spray to drip” amount or at a calibrated 20-60 gallons/acre. “Spray to drip” is an uncalibrated application of fluid to foliage, where sufficient spray volume is used to sufficiently saturate the foliage surface until excess fluid begins to drip from the foliage.

[2] = test system: lambsquarter, velvetleaf, foxtail, nutsedge and potatoes; experiment: Succinic acid enhancement of oleic acid/sodium salicylate herbicidal activity (spray to drip); assay type: in vivo
From the text: as §1

[3] = test system: 60 G/a: velvetleaf, black nightshade, redroot pigweed, foxtail and snapbeans; spray to drip: black nightshade, velvetleaf, foxtail and snapbeans; experiment: Efficacy of 1.5% succinic acid with oleic, caprylic or pelargonic acid in an emulsification system (Emsorb 6900); assay type: in vivo; parameters: Injury rating, total score for 2 evaluation, Spray to drip / Injury rating, total score for 2 evaluation, Total Rating: scale not given here
From the text: as §1

[4] = test system: mixed weed varieties; Canadian thistle; experiment: Field trial comparisons of caprylic/capric and pelargonic acids on mixed weed varieties (Example 58); assay type: in vivo; conditions: rating 1-5 for each of 2 plots per treatment group, 5 = complete desiccation
From the text: as §1

mixed weed varieties = experiment: Field trial comparisons of caprylic/capric and pelargonic acids on mixed weed varieties (Example 57); assay type: in vivo; conditions: rating 1-5 for each of 2 plots per treatment group, 5 = complete desiccation; grasses (dominant), dandelion, pigweed, plantain and Canadian thistle
From the text: as §1

Redwood pigweed = experiment: Field trial comparisons of caprylic/capric and pelargonic acids, redroot pigweed (Example 58); assay type: in vivo; conditions: rating 1-5 for each of 2 plots per treatment group, 5 = complete desiccation
Turf and Shrub Foliage [5] = experiment: Effects of various compounds on caprylic acid, testing turf and shrub foliage; assay type: in vivo; conditions: 3, 4, 6 and 7 days after a single foliar application, 5 equals profound desiccation
From the text: as §1

Turf and Covergrass = experiment: Effects of various compounds on caprylic acid, testing turf and covergrass; assay type: in vivo; conditions: 1, 3, 6, 7 and 11 days after a single foliar application at two independent sites, 5 equals profound desiccation
From the text: as §1

[6] = Measurement of pH values for test desiccants (Example 56); assay type: physicochemical
[7] = Measurement of pH values for test desiccants (Example 55); assay type: physicochemical
Turf = experiment: Synergistic relationships between succinic acid and caprylic acid (or sodium salicylate), testing turf; assay type: in vivo; conditions: 2 days after a single foliar application, 5 equals profound desiccation
From the text: as §1

soybeans [8] = experiment: Synergistic relationships between succinic acid and caprylic acid at different application rates, testing soybeans; assay type: in vivo; conditions: 2 days after a single foliar application, average of 2 sites, soybean Stine 2250; for Overall Effect: 5 equals profound desiccation
From the text: as §1

Turf and Shrub Foliage [9] = conditions: 1, 2, 4 and 7 days after a single foliar application, 5 equals profound desiccation
From the text: as §1

soybeans [10] = experiment: Synergistic relationships: succinic acid + caprylic acid, succinic acid + sodium salicylate, testing soybeans; assay type: in vivo; conditions: 3 days after a single foliar application, soybean Stine 2250
From the text: as §1

Cotton = conditions: 2 days after a single foliar application
From the text: as §1

[11] = test system: Cotton (DeltaPine NuCotn 33b); experiment: Synergistic relationship between caprylic/capric (c/c) and succinic acid as harvest aids, cotton; assay type: in vivo; conditions: footnote; cotton and potatoes
From the text: (§2) The herbicides were applied in the “spray to drip” amount or at a calibrated 20-60 gallons/acre. “Spray to drip” is an uncalibrated application of fluid to foliage, where sufficient spray volume is used to sufficiently saturate the foliage surface until excess fluid begins to drip from the foliage. In general, about 5 to 200 gallons/acre, preferably 20-100 gallons/acre can be effective.

[12] = test system: 60 G/a: redroot pigweed, velvetleaf, snapbeans, cotton and potatoes; spray to drip: black nightshade, lambsquarter, foxtail and snapbeans; conditions: footnote
From the text: as §1

[13] = test system: cotton plants, DeltaPine NuCotn 33-b, open boll; experiment: Synergistic relationships between 5% caprylic/capric (c/c) and succinic acid: desiccation of cotton plants; assay type: in vivo; conditions: footnote
From the text: as §2

[14] = test system: barnyard grass, green foxtail, sudan grass and pigweed; experiment: Enhancement of RoundUp Ultra (+/- ammonium sulfate) by succinic acid, 1 pint/acre, with Sylgard 309; assay type: in vivo; conditions: footnote
From the text: as §1

[15] = test system: Kentucky bluegrass, barnyard grass, crab grass, pigweed, redtop, nutsedge, wheat and foxtail; experiment: Enhancement of RoundUp Ultra (+/- ammonium sulfate) by succinic acid, 1 pint/acre, no surfactant; assay type: in vivo; conditions: footnote
From the text: as §1

[16] = test system: 40 G/a: crab grass, chickweed and common lambsquarter; 60 G/a: redtop, pigweed, foxtail; spray to drip: barnyard grass, foxtail, sudan grass and nutsedge; experiment: Herbicidal combinations of caprylic/capric (c/c) or pelargonic acid with equimolar succinic acid and ammonium succinate, on weed varieties; assay type: in vivo; conditions: footnote
[17] = test system: sudan grass, green foxtail, barnyard grass and pigweed; experiment: Enhancement of RoundUp Ultra (+/- ammonium sulfate) by succinic acid, 1 quart per acre; assay type: in vivo; conditions: footnote
From the text: as §1

[18] = test system: cotton (DeltaPine NuCotn 33b) foliage; experiment: Herbicidal activity on cotton foliage: succinic acid and caprylic/capric acid (c/c) combinations; assay type: in vivo; conditions: footnote
From the text: as §2

[19] = test system: 60 G/a: redroot pigweed, foxtail and velvetleaf; spray to drip: foxtail, dry beans and pigweed; experiment: Herbicidal activity: caprylic acid and succinic acid +/- ammonium sulfate; assay type: in vivo; conditions: footnote
From the text: as §1

[20] = test system: cotton (DeltaPine NuCotn 33b), potatoes (Snowden), pigweed, sudan grass, wheat, foxtail, dry beans and velvetleaf; experiment: Synergistic relationships between 5% caprylic/capric (c/c) and succinic acid; assay type: in vivo; conditions: footnote
From the text: as §2

[21] = test system: 60 G/a: nightshade, pigweed, foxtail barnyard grass, sudan grass and cotton (DeltaPine NuCotn 33b); spray to drip: Kentucky bluegrass, nutsedge, barnyard …; experiment: Herbicidal activities: succinic acid and caprylic/capric acid (c/c) combinations; assay type: in vivo; conditions: footnote
From the text: as §2

SMILES: CCCCCCCC/C=C\CCCCCCCC(=O)O [2% oleic acid, oleic acid]
- Total Injury rating, Total ([1]; 60 G/a plus spray to drip): 45.8
- Total Injury rating, 60 G/a ([1]; 60 G/a, lambsquarter, foxtail and velvetleaf, rating 1-5 per pot, two evaluations): 23.5
- Average rating per pot ([1]; scale 1-5, 60 G/a and spray to drip): 1.91
- Total injury rating (sum over pots and evaluations) ([2]; rating 1-5 per pot, two evaluations, 50% acetone, 0.3% Sylgard 309): 26.4
- Injury rating, Average rating per pot ([2]; scale 1-5, spray to drip): 2.2

SMILES: CCCCCCCCC(=O)O [3% pelargonic, pelargonic acid]
- Injury rating, total score for 2 evaluation, Total Rating ([3]; 60 G/a plus spray to drip): 122.9
- Injury rating, total score for 2 evaluation, 60 G/a ([3]; 60 G/a, rating 1-5 per pot, 1% Emsorb, 0.3% Hasten): 85.3
- Average rating per pot ([3]; scale 1-5): 4.39
- Injury rating, total score for 2 evaluation, Spray to drip ([3]; spray to drip): 37.6
- Average injury rating per plot [4]: 4.03
- Average injury rating per plot (mixed weed varieties): 4.175

SMILES: CCCCCCCCC(=O)O [6% pelargonic]
- Average injury rating per plot (Redwood pigweed): 4.35

- pH Value [6]: 3.85
- pH Value [7]: 3.93
SMILES: CCCCCCCC(=O)O [Caprylic Acid (1.0%)]
- Overall Effect, 29 Evaluations (average) (Turf and Shrub Foliage [5]): 1.05
- Overall Effect, 10 Evaluations (average) (Turf and Covergrass): 2.45
- Overall Effect (Turf): 2
- Foliage Affected (%) (soybeans [8]): 22.3%
- Overall Effect (soybeans [8]): 4

SMILES: O=C([O-])c1ccccc1O.[Na+] [Sodium Salicylate (1%)]
- Overall effect, 17 evaluations (average) (Turf and Shrub Foliage [9]): 1.35
- Foliage Affected (%) (soybeans [10]): 15-20%
- Overall Effect (soybeans [10]; 5 equals profound desiccation): 1.5

SMILES: O=C([O-])c1ccccc1O.[Na+] [Sodium Salicylate (1.0%)]
- Foliage Affected (%) (Cotton): <70%
- pH Value [7]: 5.63
- Overall Effect (Turf): 1.5

SMILES: O=C(O)CCC(=O)O [Succinic Acid (1.0%)]
- Foliage Affected (%) (Cotton): No effect
- pH Value [7]: 1.85
- Foliage Affected (%) (soybeans [8]): 0%
- Overall Effect (soybeans [8]): 0

SMILES: O=C(O)CCC(=O)O [Succinic Acid (2%)]
- Overall effect, 17 evaluations (average) (Turf and Shrub Foliage [9]): 0.24

SMILES: O=C(O)CCC(=O)O [succinic acid]
- Rating of succinic acid alone [11]: Treatment of plants with succinic acid, alone, had a rating of zero
- Rating of succinic acid alone [12]: Succinic acid, alone, had a rating of zero. Succinic acid was synergistic with oleic, caprylic and pelargonic acids
- Rating of succinic acid alone [13]: Treatment of plants with succinic acid, alone, had a rating of zero
- Rating of succinic acid alone ([3]; footnote): Succinic acid, alone, had a rating of zero. Succinic acid was synergistic with oleic, caprylic and pelargonic acids
- Rating of succinic acid tested alone [14]: Succinic acid tested alone had a rating of zero. RoundUp Ultra, alone or RoundUp Ultra + ammonium sulfate were synergistic with succinic acid.
- Rating of succinic acid tested alone [15]: Succinic acid tested alone had a rating of zero. RoundUp Ultra, alone or RoundUp Ultra + ammonia sulfate were synergistic with succinic acid
- Rating of additive tested alone [16]: Since succinic acid (or ammonium succinate) tested alone had a rating of zero, pelargonic acid (or c/c) + succinic acid (or ammonium succinate) were synergistic. The exception was: 3% pelargonic acid + 1.26% ammonium succinate
- Rating of succinic acid tested alone [17]: Succinic acid tested alone had a rating of zero. RoundUp Ultra, alone or RoundUp Ultra + ammonium sulfate were synergistic with succinic acid
- Rating of succinic acid tested alone [18]: Since succinic acid tested alone had a rating of zero, caprylic/capric + succinic acid was synergistic
- Rating of succinic acid alone [19]: Succinic acid, alone, had a rating of zero. Caprylic acid + succinic acid was synergistic
- Rating of succinic acid alone [20]: Treatment of plants with succinic acid, alone, had a rating of zero
- Rating of succinic acid alone [21]: Since succinic acid, alone had a rating of zero, caprylic/capric + succinic acid was synergistic
